Assay results published in patent US8471027B2, “Adamantyl compounds” (Hoffmann-La Roche Inc., priority 2011, dated 2013).

Experiments:
JNK1 = JNK1 (Homo sapiens, UniProt P45983); assay: In vitro JNK1 Assay (TR-FRET, phosphorylation of GST-c-Jun); type: biochemical; conditions: 0.2 nM JNK1, 26.7 nM GST-c-Jun, 2 μM ATP
Method: Phosphorylation of GST-c-Jun protein (amino acid residues 1-79) was measured as JNK1 activity. […] The reaction buffer contained 50 mM HEPES, pH 7.0, 10 mM MgCl2, 1 mM DTT, 0.1 mM Na3 VO4 and 0.2 mg/mL BSA. After 30 min. incubation at room temperature, the reaction was terminated by adding buffer containing 8 mM EDTA and a polyclonal anti-phospho-c-Jun antibody (Cell Signaling #9261L), followed by an additional incubation of 30 min. at room temperature. […] Time-resolved Fluorescence Resonance Energy Transfer (TR-FRET) signals were measured 1 hr. later on the EnVision reader (Perkin Elmer). Compound potency was assessed at 10 serially diluted concentrations. Percentage of inhibition at each concentration was determined to generate an IC50 value for each compound.

[1] = system: phospho(Ser63)-c-jun in HK-2 cells; assay: Cell-based assay for JNK inhibitors: in-cell ELISA of TNFα-stimulated phospho(Ser63)-c-jun in HK-2 cells; conditions: Homo sapiens, 10 ng/mL TNFα, 60 min preincubation with compound
Method: Cell-Based Assay for JNK Inhibitors
The cell-based assay employed the in-cell ELISA method to determine the ability of compounds to prevent the generation of phospho(Ser63)-c-jun in HK-2 cells (human proximal tubule cells) in response to stimulation with tumor necrosis factor α (TNFα). In brief, for quantification of phospho(Ser63)-c-jun, the cells (in 96-well format) were fixed and permeablized then incubated sequentially with a rabbit anti-phospho-c-jun First Antibody specific for the presence of the phospho-Ser63 epitope and a donkey anti-rabbit IgG Second Antibody linked to horseradish peroxidase (HRP) for colorimetric quantitation of binding. For determination of non-specific binding of the First Antibody, Blank wells were preincubated with a mouse anti-phospho(Ser63)-c-jun Blocking Antibody that prevented specific binding of the First Antibody to the phospho-Ser63 epitope, but which was not recognized by the donkey anti-rabbit IgG Second Antibody. […] Blank wells received no TNFα stimulation or compound. Additional Control wells received TNFα stimulation, but no compound. The signal obtained in this case was considered the value for 0% inhibition (Control value).
Stock cultures of HK-2 cells (ATCC, Manassas, Va.) were grown under a 5% CO2/[…] atmosphere at 37 degrees C. in Keratinocyte-SFM medium (KSFM, Invitrogen, Grand Island, N.Y.) containing 5 μg/L epidermal growth factor and 5 mg/L bovine pituitary extract (both supplied with the medium), additionally supplemented with 10% (v/v) fetal calf serum (FCS; Invitrogen, Grand Island, N.Y.) and 1% (v/v) antibiotic-antimycotic (ABAM: Sigma, St. Louis, Mo.). For assays, cells were seeded in collagen coated 96-well polystyrene plates (BD Biosciences, Franklin Lakes, N.J.) at a density of 40,000 cells/well and cultured for 24 h in the same medium (100 μL/well) followed by a further 16-24 h in 100 μL of similar medium, but without FCS. […] Cells were incubated for a further 30 minutes and then the medium was aspirated and the wells washed with 100 μL/well PBS followed by the addition of 100 μL 3.7% (v/v) Formaldehyde (Fisher Scientific, Fair Lawn, N.J.) in PBS. Plates were then allowed to stand at room temperature for 20 minutes before being washed with 200 μL/well of PBS. (Further steps were performed immediately or the plates were stored at 4 degrees C. and the assay completed the next day.) To each well was added 100 μL 1% (v/v) TritonX-100 (Sigma, St. Louis, Mo.) in PBS followed by 20 minutes standing at room temperature, washing with 200 μL/well PBS, the addition of 100 μL/well of Quenching buffer (1% (v/v) hydrogen peroxide (Sigma, St. Louis, Mo.) and 0.1% (w/v) sodium azide (Fisher Scientific, Fair Lawn, N.J.)) in PBS and a further 20 minutes at room temperature. Plates were then washed twice with 200 μL/well of 0.1% (v/v) Tween-20 (Teknova, Hollister, Calif.) in PBS before addition of 200 μL/well of 2% BSA/0.10% Tween-20 in PBS and a further 1 hour at room temperature. At this time, buffer was removed from Blank wells and replaced with 90 μL/well of mouse anti-phospho-c-jun-Ser63 (BD Bioscience, 558036) diluted 1:4000 in PBS containing 1% BSA/0.1% Tween-20 (Antibody Dilution Buffer). All other wells are replaced with 90 μL/well of rabbit anti-phospho-c-jun-Ser63 (Cell Signaling, 9261) diluted 1:250 in Antibody Dilution Buffer. After a further one hour, rabbit anti-phospho-c-jun-Ser63 is added directly to the solution in the Blank wells resulting in 1:250 dilution of this antibody. Plates were then placed on a slowly rotating platform at 4 degrees C. overnight. Wells were then washed thrice with 200 μL/well PBS/0.1% Tween-20. After addition of the third wash, the plates were placed on a slowly rotating platform for 15 minutes at room temperature. […]

phospho-(Ser63)-c-jun = assay: Mouse In Vivo TNFα-Induced Kidney and Liver Phospho-c-Jun Assay; set-up: species or system C57/BL6 mice; conditions: Example B, procedures identical to Example A
Method: Male C57/BL6 mice were obtained from Jackson Labs and acclimatized for at least one week prior to use at age 10-12 weeks. Mice (n=8 per group) were administered Compound I-1 (Group 3; 50 mg/kg from a 12.5 mg/mL preparation in 20% (v/v)DMSO/80% (v/v) PEG400) or vehicle alone (Groups 1 and 2) via oral gavage. One hour later, mice received an intravenous challenge of 5 μg/kg recombinant mouse TNFα (Sigma) in saline (Groups 2 and 3) or saline alone (Group 1). After a further 1 h, the animals were killed by carbon dioxide inhalation. Kidneys and livers were removed, rapidly frozen in liquid nitrogen and stored at −80 degrees until analysis.
For analysis of livers, portions of frozen tissue (100-200 mg) were homogenized in lysis buffer (Cell Signaling Technology) supplemented with 1% (v/v) of each of Phosphatase Inhibitor Cocktail-1 (Sigma), Phosphatase Inhibitor Cocktail-2 (Sigma), Protease Inhibitor Cocktail (Sigma) and 1 mM AEBSF (Sigma). The phospho-(Ser63)-c-jun content was quantified using an ELISA kit (Cell Signaling Technology).
Experimental procedures were identical to Example A, but using 7-chloro-3-(4-methanesulfonyl-benzyl)-4-oxo-1-phenyl-1,4-dihydro-quinoline-2-carboxylic acid methyl ester.

JNK1, sequence (P45983 whole entry, species assumed, the tested form may be a part): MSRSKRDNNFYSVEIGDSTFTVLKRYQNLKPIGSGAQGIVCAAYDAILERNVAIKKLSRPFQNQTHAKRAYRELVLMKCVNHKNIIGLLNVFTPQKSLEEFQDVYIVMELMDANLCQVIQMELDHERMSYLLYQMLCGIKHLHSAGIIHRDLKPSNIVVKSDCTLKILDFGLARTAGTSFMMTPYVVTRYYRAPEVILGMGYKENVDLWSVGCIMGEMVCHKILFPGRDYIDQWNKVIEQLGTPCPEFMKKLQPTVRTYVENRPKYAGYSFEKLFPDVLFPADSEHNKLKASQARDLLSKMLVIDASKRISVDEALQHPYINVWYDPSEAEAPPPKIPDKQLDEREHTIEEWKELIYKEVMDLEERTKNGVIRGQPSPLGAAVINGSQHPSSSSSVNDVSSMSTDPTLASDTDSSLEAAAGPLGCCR

| SMILES | IC50 (JNK1) [nM] | EC50 [1] [nM] | effect on the levels of phospho-(Ser63)-c-jun in the kidneys (phospho-(Ser63)-c-jun) | effect on the levels of phospho-(Ser63)-c-jun in the livers (phospho-(Ser63)-c-jun) |
| --- | --- | --- | --- | --- |
| O=C(N[C@@H]1[C@@H]2C[C@@H]3C[C@H]1C[C@@](O)(C3)C2)c1ccc(Cc2c(-c3ncco3)n(-c3ccccc3)c3cc(Cl)ccc3c2=O)cc1 [Compound I-27, Rel-4-(7-Chloro-2-oxazol-2-yl-4-oxo-1-phenyl-1,4-dihydro-quinolin-3-ylmethyl)-N-((1S,2S,3R,5S,7S)-5-hydroxy-adamantan-2-yl)-benzamide] | 27 | 8600 | – | – |
| COC(=O)c1c(Cc2ccc(C(=O)N[C@@H]3[C@@H]4C[C@@H]5C[C@H]3C[C@@](NC(=O)C(C)(C)OC(C)=O)(C5)C4)cc2)c(=O)c2cccnc2n1-c1ccccc1 [Compound I-21, rel-3-{4-[(1S,2S,3R,5S,7S)-5-(2-Acetoxy-2-methyl-propionylamino)-adamantan-2-ylcarbamoyl]-benzyl}-4-oxo-1-phenyl-1,4-dihydro-[1,8]naphthyridine-2-carboxylic acid methyl ester] | 25 | 4800 | – | – |
| COC(=O)c1c(Cc2ccc(S(C)(=O)=O)cc2)c(=O)c2ccc(Cl)cc2n1-c1ccccc1 [7-chloro-3-(4-methanesulfonyl-benzyl)-4-oxo-1-phenyl-1,4-dihydro-quinoline-2-carboxylic acid methyl ester, reference compound] | 32 | 15000 | No significant effect | No significant effect |
| COC(=O)c1c(Cc2ccc(C(=O)N[C@@H]3[C@@H]4C[C@@H]5C[C@H]3C[C@@](NC(C)=O)(C5)C4)cc2)c(=O)c2ccc(Cl)cc2n1-c1ccccc1 [Compound I-10, rel-3-[4-((1S,2S,3R,5S,7S)-5-Acetylamino-adamantan-2-ylcarbamoyl)-benzyl]-7-chloro-4-oxo-1-phenyl-1,4-dihydro-quinoline-2-carboxylic acid methyl ester] | 30 | 3500 | – | – |
| COC(=O)c1c(Cc2ccc(C(=O)N[C@@H]3[C@@H]4C[C@@H]5C[C@H]3C[C@@](NC(=O)C(C)(C)O)(C5)C4)cc2)c(=O)c2ccc(Cl)cc2n1-c1ccccc1 [Compound I-13, rel-7-Chloro-3-{4-[(1S,2S,3R,5S,7S)-5-(2-hydroxy-2-methyl-propionylamino)-adamantan-2-ylcarbamoyl]-benzyl}-4-oxo-1-phenyl-1,4-dihydro-quinoline-2-carboxylic acid methyl ester] | 42 | 1900 | – | – |
| COC(=O)c1c(Cc2ccc(C(=O)N[C@@H]3[C@@H]4C[C@@H]5C[C@H]3C[C@@](O)(C5)C4)cc2F)c(=O)c2cccnc2n1-c1ccccc1 [Compound I-24, rel-3-[2-Fluoro-4-((1S,2S,3R,5S,7S)-5-hydroxy-adamantan-2-ylcarbamoyl)-benzyl]-4-oxo-1-phenyl-1,4-dihydro-[1,8]naphthyridine-2-carboxylic acid methyl ester] | 34 | 8600 | – | – |
| COC(=O)c1c(Cc2ccc(C(=O)N[C@@H]3[C@@H]4C[C@@H]5C[C@H]3C[C@@](NS(C)(=O)=O)(C5)C4)cc2)c(=O)c2ccc(Cl)cc2n1-c1ccccc1 [Compound I-15, rel-7-Chloro-3-[4-((1S,2S,3R,5S,7S)-5-methanesulfonylamino-adamantan-2-ylcarbamoyl)-benzyl]-4-oxo-1-phenyl-1,4-dihydro-quinoline-2-carboxylic acid methyl ester] | 57 | 3200 | – | – |
| COC(=O)c1c(Cc2ccc(C(=O)N[C@@H]3[C@@H]4C[C@@H]5C[C@H]3C[C@@](NC(=O)C(C)(C)C)(C5)C4)cc2)c(=O)c2cccnc2n1-c1ccccc1 [Compound I-20, rel-3-{4-[(1S,2S,3R,5S,7S)-5-(2,2-Dimethyl-propionylamino)-adamantan-2-ylcarbamoyl]-benzyl}-4-oxo-1-phenyl-1,4-dihydro-[1,8]naphthyridine-2-carboxylic acid methyl ester] | 39 | 5300 | – | – |

More lines, in order of falling IC50 (JNK1), values ahead:

| IC50 (JNK1) [nM] | EC50 [1] [nM] | SMILES | effect on the levels of phospho-(Ser63)-c-jun in the kidneys (phospho-(Ser63)-c-jun) | effect on the levels of phospho-(Ser63)-c-jun in the livers (phospho-(Ser63)-c-jun) |
| --- | --- | --- | --- | --- |
| 62 | 6900 | COC(=O)c1c(Cc2ccc(C(=O)N[C@@H]3[C@@H]4C[C@@H]5C[C@H]3C[C@@](NC(=O)C(C)(C)C)(C5)C4)cc2)c(=O)c2ccc(Cl)cc2n1-c1ccccc1 [Compound I-11, rel-7-Chloro-3-{4-[(1S,2S,3R,5S,7S)-5-(2,2-dimethyl-propionylamino)-adamantan-2-ylcarbamoyl]-benzyl}-4-oxo-1-phenyl-1,4-dihydro-quinoline-2-carboxylic acid methyl ester] | – | – |
| 40 | 3900 | COC(=O)c1c(Cn2ccc(C(=O)N[C@@H]3[C@@H]4C[C@@H]5C[C@H]3C[C@@](O)(C5)C4)cc2=O)c(=O)c2ccc(Cl)cc2n1-c1ccccc1 [Compound I-26, rel-7-Chloro-3-[4-((1S,2S,3R,5S,7S)-5-hydroxy-adamantan-2-ylcarbamoyl)-2-oxo-2H-pyridin-1-ylmethyl]-4-oxo-1-phenyl-1,4-dihydro-quinoline-2-carboxylic acid methyl ester] | – | – |
| 27 | 3200 | COC(=O)c1c(Cc2ccc(C(=O)N[C@@H]3[C@@H]4C[C@@H]5C[C@H]3C[C@@](N)(C5)C4)cc2)c(=O)c2ccc(Cl)cc2n1-c1ccccc1 [Compound I-9, rel-3-[4-((1S,2S,3R,5S,7S)-5-Amino-adamantan-2-ylcarbamoyl)-benzyl]-7-chloro-4-oxo-1-phenyl-1,4-dihydro-quinoline-2-carboxylic acid methyl ester] | – | – |
| 12 | 5800 | COC(=O)c1c(Cc2ccc(C(=O)N[C@@H]3[C@@H]4C[C@@H]5C[C@H]3C[C@@](O)(C5)C4)cc2)c(=O)c2ccc(Cl)cc2n1-c1ccccc1 [Compound I-3, rel-7-Chloro-3-[4-((1S,2S,3R,5S,7S)-5-hydroxy-adamantan-2-ylcarbamoyl)-benzyl]-4-oxo-1-phenyl-1,4-dihydro-quinoline-2-carboxylic acid methyl ester] | – | – |
